From EP0326640B1, “(1R,5S,6S)-2-substituted thio-6 (R)-1-hydroxyethyl -1-methyl-carbapenem - carboxylic acid derivatives” (LEDERLE (JAPAN) LTD., priority 1987, dated 1989)
≈ marks a conversion by molar mass, not a printed value. Where two headings read alike, the source gives them in different places.

Experiments:
Format in all cases: cell-based
[1] = test system: Proteus morganii GN 5407; experiment: Antibacterial activity against clinically isolated β-lactamase (cephalosporinase) producing strains (MIC); conditions: Morganella morganii, GN5407, cephalosporinase producing strain, SDA, 18 to 20 hours, read-out: MIC
Method: (§1) The antibacterial activities against clinically isolated β-lactamase producing strains were tested by the agar plate dilution method in accordance with the standard method of The Japanese Chemotherapy Society [Chemotherapy, Vol. 29, 76-79 (1981)]. A solution of a cephalosporinase producing strain stored by Episome Research Institute, prepared by incubating the strain in a sensitivity test broth (STB; product of Nissui K. K.) for 18 hours, was diluted with a fresh STB solution so that the solution contained 10⁶ cells per milliliter. The diluted solution was then inoculated as spots in a microplanter on a sensitivity disk agar-N (SDA; product of Nissui K. K.) containing a test compound. The disk agar was then incubated for 18 to 20 hours. The minimum inhibitory concentration was determined as a minimum concentration in which the test microorganism no longer grew after a 18 to 20-hour incubation.

[2] = test system: Providencia rettgeri GN 5284; experiment: as above; conditions: GN5284, cephalosporinase producing strain, SDA, 18 to 20 hours, read-out: MIC
Method: as §1

[3] = test system: Citrobactor freundii GN 7391; experiment: as above; conditions: cephalosporinase producing strain, SDA, 18 to 20 hours
Method: as §1

[4] = test system: Serratia marcescens GN 10857; experiment: as above; conditions: Serratia marcescens, GN10857, Serratia marcescens GN 10857; cephalosporinase producing strain, SDA, 18 to 20 hours; read-out: MIC
Method: as §1

[5] = test system: Serratia marcescens L-82; experiment: as above; conditions: L82, cephalosporinase producing strain, SDA, 18 to 20 hours, read-out: MIC
Method: as §1

[6] = test system: Pseudomonas aeruginosa GN 10367; experiment: as above; conditions: Pseudomonas aeruginosa, GN10367, Pseudomonas aeruginosa GN 10367; cephalosporinase producing strain, SDA, 18 to 20 hours
Method: as §1

[7] = test system: Proteus morganii GN 5307; experiment: as above; conditions: cephalosporinase producing strain, SDA, 18 to 20 hours
Method: as §1

[8] = test system: Proteus vulgaris GN 7919; experiment: as above; conditions: cephalosporinase producing strain, SDA, 18 to 20 hours
Method: as §1

[9] = test system: Proteus vulgaris GN 4413; experiment: as above; conditions: Proteus vulgaris
Method: as §1

[10] = test system: Serratia marcescens L-65; experiment: as above; conditions: Serratia marcescens, L65, Serratia marcescens L-65; cephalosporinase producing strain, SDA, 18 to 20 hours; read-out: MIC
Method: as §1

[11] = test system: Klebsiella oxytoca GN 10650; experiment: as above; conditions: Klebsiella oxytoca, GN10650, Klebsiella oxytoca GN 10650; cephalosporinase producing strain, SDA, 18 to 20 hours; read-out: MIC
Method: as §1

[12] = test system: Enterobacter cloacae GN 7471; experiment: as above; conditions: GN7471, cephalosporinase producing strain, SDA, 18 to 20 hours, read-out: MIC
Method: as §1

[13] = test system: Providencia rettgeri GN 4762; experiment: as above; conditions: Providencia rettgeri, GN4762, Providencia rettgeri GN 4762; cephalosporinase producing strain, SDA, 18 to 20 hours; read-out: MIC
Method: as §1

[14] = test system: Escherichia coli No. 96; experiment: as above; conditions: cephalosporinase producing strain, SDA, 18 to 20 hours, read-out: MIC
Method: as §1

[15] = test system: Pseudomonas aeruginosa IFO 3445; experiment: Antibacterial test, agar plate dilution method (MIC), standard strains; conditions: IFO3445, MH agar, 37°C, 18 hours, read-out: MIC
Method: (§2) The antibacterial activities were tested by an agar plate dilution method in accordance with the standard method of The Japanese Chemotherapy Society [Chemotherapy, Vol. 29, 76-79 (1981)].
(§3) A Mueller-Hinton (MH) agar liquid medium of a test microorganism was cultured overnight at 37°C and the resultant culture medium was diluted with a buffered saline gelatin (BSG) solution to contain approximately 10⁶ cells of the test microorganisms per milliliter, and then the diluted solution was inoculated with a microplanter at the rate of approximately 5 microliters on a MH agar medium containing a test compound. This medium was then incubated at 37°C for 18 hours. The minimum inhibitory concentration (MIC) is determined as a minimum concentration in which no test microorganism could grow. It is noted here that the test organisms used were all standard strains.

[16] = test system: Salmonella paratyphi 1015; experiment: as above; conditions: Salmonella enterica, MH agar, 37°C, 18 hours, read-out: MIC
Method: as §2, §3

[17] = test system: Proteus vulgaris HX-19; experiment: as above; conditions: Proteus vulgaris, HX19, 18 h
Method: as §2, §3

[18] = test system: Salmonella enteritidis G14; experiment: as above; conditions: Salmonella enterica, MH agar, 37°C
Method: as §2, §3

[19] = test system: Proteus vulgaris OX-19; experiment: as above; conditions: Proteus vulgaris, OX19, 18 h
Method: as §2, §3

[20] = test system: Providencia rettgeri IFO 3850; experiment: as above; conditions: Providencia rettgeri, IFO3850, 18 h, MH agar, 37°C, read-out: MIC
Method: as §2, §3

[21] = test system: Morganella morganii IFO3848; experiment: as above; conditions: Morganella morganii, IFO3848, 18 h, MH agar, 37°C, read-out: MIC
Method: as §2, §3

[22] = test system: Pseudomanas aeruginosa NCTC 10940; experiment: as above; conditions: 18 h, MH agar, 37°C, read-out: MIC
Method: as §2, §3

[23] = test system: Salmonella typhi 901; experiment: as above; conditions: Salmonella enterica, TYPHI, 18 h, MH agar, 37°C
Method: as §2, §3

[24] = test system: Salmonella schottmuelleri 8006; experiment: as above; conditions: MH agar, 37°C, 18 hours, read-out: MIC
Method: as §2, §3

[25] = test system: Serratia marcescens IAM1184; experiment: as above; conditions: MH agar, 37°C
Method: as §2, §3

[26] = test system: Proteus mirabilis IFO3849; experiment: as above; conditions: Proteus mirabilis, IFO3849, 18 h
Method: as §2, §3

Compound	MIC [1] [µg/mL]	MIC [2] [µg/mL]	MIC [3] [µg/mL]	MIC [4] [µg/mL]	MIC [5] [µg/mL]	MIC [6] [µg/mL]	MIC [10] [µg/mL]	MIC [11] [µg/mL]	MIC [12] [µg/mL]	MIC [13] [µg/mL]	MIC [14] [µg/mL]	MIC [15] [µg/mL]	MIC [16] [µg/mL]	MIC [17] [µg/mL]	MIC [19] [µg/mL]	MIC [20] [µg/mL]	MIC [21] [µg/mL]	MIC [22] [µg/mL]	MIC [23] [µg/mL]	MIC [24] [µg/mL]	other results
C[C@@H](O)[C@H]1C(=O)N2C(C(=O)O)=C(SCCN=CN)C[C@H]12 [Imipenem, imipenem]	3.13 (≈ 10.5 µM)	0.39 (≈ 1.3 µM)	0.78 (≈ 2.61 µM)	3.13 (≈ 10.5 µM)	0.2 (≈ 0.668 µM)	1.56 (≈ 5.21 µM)	0.39 (≈ 1.3 µM)	0.2 (≈ 0.668 µM)	0.2 (≈ 0.668 µM)	0.39 (≈ 1.3 µM)	0.1 (≈ 0.334 µM)	0.78 (≈ 2.61 µM)	1.56 (≈ 5.21 µM)	1.56 (≈ 5.21 µM)	1.56 (≈ 5.21 µM)	0.78 (≈ 2.61 µM)	0.39 (≈ 1.3 µM)	0.78 (≈ 2.61 µM)	0.1 (≈ 0.334 µM)	0.78 (≈ 2.61 µM)	MIC ([7]; Morganella morganii, GN5307, Proteus morganii GN 5307, read-out: MIC): 0.78 µg/mL (≈ 2.61 µM); MIC ([8]; Proteus vulgaris, GN7919, Proteus vulgaris GN 7919, read-out: MIC): 0.39 µg/mL (≈ 1.3 µM); MIC ([9]; GN4413): 6.25 µg/mL (≈ 20.9 µM); MIC ([18]; 18 hours, read-out: MIC): 0.78 µg/mL (≈ 2.61 µM); MIC ([25]; Serratia marcescens, IAM1184, 18 h, read-out: MIC): 0.39 µg/mL (≈ 1.3 µM); MIC [26]: 6.25 µg/mL (≈ 20.9 µM)
C[C@@H](O)[C@H]1C(=O)N2C(C(=O)[O-])=C(SCc3cs[n+](C)n3)[C@H](C)[C@H]12 [Amorphous Compd. (14), (1R,5S,6S)-2-[(2-methyl-1,2,3-thiadiazolium-4-yl)methyl]thio-6-[(R)-1-hydroxyethyl]-1-methyl-carbapenem-3-carboxylate]	6.25 (≈ 17.6 µM)	0.39 (≈ 1.1 µM)	1.56 (≈ 4.39 µM)	6.25 (≈ 17.6 µM)	0.2 (≈ 0.563 µM)	1.56 (≈ 4.39 µM)	0.78 (≈ 2.19 µM)	0.39 (≈ 1.1 µM)	0.1 (≈ 0.281 µM)	0.39 (≈ 1.1 µM)	0.05 (≈ 0.141 µM)	0.39 (≈ 1.1 µM)	1.56 (≈ 4.39 µM)	1.56 (≈ 4.39 µM)	1.56 (≈ 4.39 µM)	0.05 (≈ 0.141 µM)	0.39 (≈ 1.1 µM)	0.39 (≈ 1.1 µM)	0.025 (≈ 0.0703 µM)	0.39 (≈ 1.1 µM)	MIC ([7]; Proteus morganii GN 5307): 3.13 µg/mL (≈ 8.81 µM); MIC ([8]; Proteus vulgaris GN 7919): 6.25 µg/mL (≈ 17.6 µM); MIC ([9]; GN4413, Proteus vulgaris GN 4413, cephalosporinase producing strain, SDA, 18 to 20 hours, read-out: MIC): 6.25 µg/mL (≈ 17.6 µM); MIC ([18]; ENTERITIDIS, 18 h): 1.56 µg/mL (≈ 4.39 µM); MIC ([25]; 18 hours): 0.2 µg/mL (≈ 0.563 µM); MIC ([26]; Proteus mirabilis IFO3849, MH agar, 37°C, 18 hours, read-out: MIC): 6.25 µg/mL (≈ 17.6 µM)
